# Several values for one entry are separate records, joined by “and”; a condition that tells them apart may be missing. Equal entries are not always repeated. Where two headings read alike, the source gives them in different places.
# Experiments:
# [1] = Plasma pharmacokinetics after single-gavage administration of IXA to mice; assay type: in vivo, C57/BL6 mice; conditions: for Cmax: mean ± SEM
# Description: Six‐week‐old male C57/BL6 mice (initial BW: 19–24 g; Japan SLC, Shizuoka, Japan) were housed in a room maintained at 23–26°C with a 12‐h light–dark cycle. During the 1‐week acclimatization period, they were allowed free access to a commercial diet (Oriental Yeast Co., Tokyo, Japan) and water. Two days before the experiment, they were fed AIN‐93M (Oriental Yeast Co.). Before drug administration, they were fasted for 20 h, but had free access to water. IXA dissolved in 3% hydroxypropyl‐β‐cyclodextrin and 5% ethanol (Fujifilm; Wako Pure Chemical Corp., Osaka, Japan) was named the injection solution and administered (50 mg/kg BW) to mice intragastrically using a gastric feeding tube (AS ONE, Osaka, Japan). Blood, brain, thymus, heart, lung, liver, spleen, pancreas, kidney, and gastrocnemius muscle were collected 0.5, 1, 2, 4, 8, 12, 24, and 48 h after administration. We also set up a control group, and mice in this group were sacrificed just before we started administering IXA at 0 h. At 4 h after administration, mice were allowed free access to AIN‐93 M. Plasma was isolated by centrifugation at 17 × 10^3 m/s^2 (5911, Kubota, Tokyo, Japan) for 5 min at 4°C. All tissues were dissected, weighed, and immediately frozen in liquid nitrogen. All samples were stored at −80°C until analysis.
# (§1) Plasma samples were deconjugated by β‐glucuronidase type H‐1 (which has β‐glucuronidase and sulphatase activity; Sigma, St. Louis, MO, USA; G0751) to convert aglycon from conjugated metabolites of IXA and 8‐PN, as described in a previous report (Y. Tanaka et al., [2022]). Briefly, 100 μL of plasma was mixed with 900 μL of 0.1 mol/L sodium acetate buffer (pH 4.7), 200 μL of 50 mmol/L ascorbic acid, and 1 mL of 1.67 μkat/100 μL of β‐glucuronidase type H‐1, and then incubated for 30 min at 37°C. Then, 2.4 nmol of QTM was added to the samples as the internal standard. The liberated aglycone was extracted using ethyl acetate (Kanto Kagaku, 14,029‐2B).
# (§2) The plasma and tissue extracts were evaporated using a Centrifugal Evaporator (EYERA, Tokyo, Japan, CVE‐3000). The samples were stored at −80°C until the next day. Then, the samples were dissolved in 120 μL of a mobile phase solution and divided into two test tubes. The first sample was injected into the HPLC with an ultraviolet detection system (Shimadzu, Kyoto, Japan).
# (§3) IXA and 8‐PN concentrations were determined by their respective standard curves using an internal standard method. A Cadenza 3‐μm CD‐C18 HPLC column (CD005, 150 × 4.6 mm; Imtakt Corporation, Kyoto, Japan) was equipped for HPLC (λ = 295 nm). The mobile phase consisted of methanol:water:acetic acid (60:35:5, v/v/v). The flow rate was set at 1.0 mL/min. […] Because clear peaks over 4.5 pmol/sample were detected for IXA and 8‐PN by visual evaluation, we determined that these concentrations were the peak limit of detections for each flavonoid. We applied calibration curves in the IXA/QTM concentration ratio range of 0.007–35.1 (R ^2 = .9955).
# [2] = Liver accumulation after intragastric IXA administration at various concentrations to rats for 28 days; assay type: in vivo, Sprague–Dawley rats; conditions: rat liver; IXA 112.5–1500 mg/kg BW once a day for 28 days; Pearson
# Description: Six‐week‐old female Sprague–Dawley rats (Charles River Laboratories Japan, Inc., Yokohama, Japan) were housed in a room maintained at 20–26°C on a 12‐h light–dark cycle. The initial BW of rats was 176–179 g. They were allowed free access to a commercial diet (CRF‐1) and water during the experiment. IXA dissolved in injection solution was administered intragastrically to rats (112.5, 225, 360, 450, and 1500 mg/kg BW) daily for 28 days using a gastric feeding tube. We also set up a control group to which the injection solution was administered. The final BW of rats was 231–241 g. The liver was collected the day after the last administration. The rats were fasted for 16–24 h before they were euthanized, but they had free access to water. Liver samples were stored at −80°C until analysis.
# (§4) Tissue sample deconjugation was performed as described in a previous report with slight modifications (Tanaka et al., [2022]). Tissues were homogenized in phosphate‐buffered saline (pH 7.4), which was nine times the tissue volume. The tissue homogenate was incubated in 50 mmol/L ascorbic acid (one‐fifth the volume of phosphate‐buffered saline) and 1.67 μkat/100 μL of β‐glucuronidase type H‐1 in 0.1 mol/L sodium acetate buffer (pH 4.7, nine times the volume of the sample) for 2 h at 37°C. Then, 2.4 nmol of QTM was added to samples as an internal standard. The supernatant was isolated by centrifugation at 17 × 10^3 m/s^2 (Kubota) for 5 min at 4°C. Then, methanol (Kanto Kagaku, 25183‐2B) was added to the pellets, and they were shaken for 1 min. The methanol layer and pellets were separated by centrifugation at 17 × 10^3 m/s^2 (Kubota, RY1071‐A000) for 5 min at 4°C. Methanol extraction was repeated three times. Finally, methanol extracts were mixed with the supernatant (the composition of the mixture was 30% methanol) and then applied to an Inert Sep C8 (200 mg/3 mL; GL Sciences, Tokyo, Japan; 5010‐61082) cartridge. The cartridge was preconditioned with 6 mL of 2% acetic acid in methanol, and then 9 mL of 2% acetic acid in water. The extracted tissue was passed through the cartridge, and it was washed with 5 mL of 2% acetic acid in 30% methanol aq. The flavonoids were eluted with 10 mL of 2% acetic acid in methanol.
# The plasma and tissue extracts were evaporated using a Centrifugal Evaporator (EYERA, Tokyo, Japan, CVE‐3000). The samples were stored at −80°C until the next day. Then, the samples were dissolved in 120 μL of a mobile phase solution and divided into two test tubes. […]
# IXA and 8‐PN concentrations were determined by their respective standard curves using an internal standard method. […] Because clear peaks over 4.5 pmol/sample were detected for IXA and 8‐PN by visual evaluation, we determined that these concentrations were the peak limit of detections for each flavonoid. […]
# [3] = parameters: method as in Possemiers et al., 2008; conditions: ref Possemiers et al., 2008; cited from earlier work
# [4] = Tissue and plasma accumulation after daily gavage administration of IXA to mice for 14 days; assay type: in vivo, C57/BL6 mice; conditions: IXA 30 mg/kg BW daily 14 days, 24 h after final administration
# Description: Animal species, age, sex, initial BW, feeding conditions, and dosage method were the same as those for the single gavage administration test, but the dose was 30 mg/kg BW. […] Daily gavage administration without fasting was performed at 12:00 PM for 14 days. The final BW was 21–26 g. Blood, brain, thymus, heart, lung, liver, spleen, kidney, and gastrocnemius muscle were collected 24 h after the final administration. The sample collection method was the same as that for the single gavage administration test.
# as §1, §4, §2, §3
# [5] = single oral IXA 50 mg/kg BW, plasma
substance,measurement,setting,value
"4,7‐dihydroxy‐5‐methoxy‐8‐prenylflavanone [IXA]","IXA accumulation, single-ingestion test (at 24 h)","[1]; plasma, single IXA 50 mg/kg BW, 24 h",0.2 ± 0.1 μmol/L of plasma
same,time at which IXA was increased further,"[1]; plasma, single oral IXA 50 mg/kg BW",8 h
same,IXA in plasma at 48 h after administration,"[1]; single oral IXA 50 mg/kg BW, 48 h",not detected
same,T 1/2 (half-life in the mean elimination phase),[1]; [5],1.43 h and 1.4 h
same,time until which detected in plasma after ingestion,[1]; [5],24 h
same,Cmax,"[1]; single oral IXA 50 mg/kg BW, plasma, at 0.5 h, read-out: plasma maximum concentration (C max)",3.95 ± 0.81 µM
same,AUC24h,"[1]; single oral IXA 50 mg/kg BW, plasma, calculated using the mean at each time point",18.2 µM·h
same,Cmax,"[1]; single oral IXA 50 mg/kg BW, plasma, read-out: C max",4 ± 0.8 µM
same,correlation coefficient between dose-concentration and accumulation,[2],.813
same,rate of excretion into the feces,[3],approximately 47%
same,"IXA accumulation, 14-day repeated-ingestion test",[4]; brain,0.2 ± 0.1 nmol/g of tissue
same,"IXA accumulation, 14-day repeated-ingestion test",[4]; heart,not detected
same,"IXA accumulation, 14-day repeated-ingestion test",[4]; kidney,5.8 ± 1.0 nmol/g of tissue
same,"IXA accumulation, 14-day repeated-ingestion test",[4]; liver,8.6 ± 2.9 nmol/g of tissue
same,"IXA accumulation, 14-day repeated-ingestion test",[4]; lung,3.2 ± 2.8 nmol/g of tissue
same,"IXA accumulation, 14-day repeated-ingestion test",[4]; plasma,not detected
same,"IXA accumulation, 14-day repeated-ingestion test",[4]; spleen,3.4 ± 2.0 nmol/g of tissue
same,"IXA accumulation, 14-day repeated-ingestion test",[4]; thymus,4.3 ± 3.8 nmol/g of tissue

# Reference: publication PMC10916623, “Tissue distribution and pharmacokinetics of isoxanthohumol from hops in rodents” (Food Science & Nutrition, 2023)
